Data on one sequence can be found in US11660326B2, “Bacterial-binding peptides for treatment of infectious diseases and related inflammatory processes” (priority 2018, dated 2023).

Assay [1] is described as follows: Solid phase binding assay (ELISA) of biotin-labeled peptides to immobilized LPS. Set-up: species or system E. coli. Particulars: biotin-labeled peptide 5-20 μg/mL; LPS 5 μg/mL coated. As for the experimental part: (§1) FIG. 3. Binding of biotin-labeled CD6-derived peptides to immobilized PAMPs from Gram- and Gram+ origin. Increasing concentrations (5-20 μg/mL) of biotin-labeled CD6- (PD1, PD2, PD3 and cons), DMBT1- (pbs1), and CD5- (PD1) derived peptides were added to 96-well ELISA plates sensitized with E. coli 0111:B4 LPS (A) or S. aureus LTA (B) (5 μg/mL each in PBS). Following overnight incubation at 4° C. bound peptides or proteins were developed by addition of horseradish peroxidase (HRP)-labeled streptavidin and 3,3′,5,5′-tetramethylbenzidine (TMB) substrate and further readings at OD 405-620 nm. Results are expressed as mean±SD of duplicates from one representative experiment of three performed. Statistical analysis was performed by two-way ANOVA (*,P<0.05; **, P<0.01; ***, P<0.001).
(§2) Solid Phase Binding Assays. 96-well microtiter plates (Nunc, Roskilde, Denmark) were coated overnight at 4° C. with 5 μg/mL of purified LPS (E. coli 0111:B4, Sigma L2630) or LTA (S. aureus, Sigma L2515) in PBS, and then incubated for 2 h at room temperature in blocking solution (20 mM Tris-HCl pH 7.4 plus 0.05% Tween 20 and 1% BSA). Biotin-labeled peptides/proteins (2.5-20 μg/mL) were added and incubated overnight at 4° C. in blocking solution. After extensive washing, bound peptides/proteins were detected by the addition of horseradish peroxidase (HRP)-labeled streptavidin (1:5,000 dilution; DAKO) for 1 h at room temperature. Color was developed by adding 3,3′,5,5′-tetramethylbenzidine (TMB) liquid substrate (Sigma), and optical density read at 405-620 nm.

In assay [2] the test system is mouse splenocytes exposed to LPS. Put plainly: LPS-induced cytokine release by mouse splenocytes. Format: cell-based, C57BL/6 mice. To be noted: LPS 0.5 μg/mL, 48 h, peptide 0.5, 5 and 20 μg/mL. Here is the method: FIG. 6. Effect of CD6-derived peptides on in vitro LIPS-induced cytokine release by mouse splenocytes. Total spleen cell suspensions (2×10^5) from C57BL/6 mice (n=7) were stimulated in triplicate for 48 h with LPS (0.5 μg/mL), in the presence or absence of increasing concentrations (0.5, 5, and 20 μg/mL) of CD6-derived peptides (PD1, PD2, PD3, and Pcons). Cytokine levels in culture supernatants were determined by ELISA and results expressed in pg/mL as mean±SD of triplicates. Viability was >75% at 48 h in all experimental conditions. Statistical analysis was performed using a 2-tailed Mann-Whitney test, with confidence intervals of 95% (*, P<0.05; **, P<0.01; ***, P<0.001).
Spleens from 6-8 week old C57BL/6 mice (Charles River) were disaggregated by filtering through a cell strainer and, after erythrocyte lysis, cells were resuspended in RPMI 1640 with L-glutamine (Lonza) plus 10% fetal calf serum (BioWest), 100 U/mL penicillin, 100 μg/mL streptomycin and 50 μM 2-(3 Mercaptoethanol (Merck). Cells (2×10^5) were stimulated for 48 h (at 37° C. in a humidified atmosphere with 5% CO2) in U-bottomed 96-well plates (Biofil) containing LPS (0.5 μg/mL; E. coli O111:B4), in the presence or absence of increasing peptides (0.5-20 μg/mL). Culture supernatants were harvested and mouse cytokines measured by ELISA following manufacturer's instructions (BD Biosciences OptEIA sets).

A short description of assay [3]: Solid phase binding assay (ELISA) of biotin-labeled peptides to immobilized LTA. To be noted: biotin-labeled peptide 5-20 μg/mL; LTA 5 μg/mL coated. Further details: species or system S. aureus. Here is the method: as §1, §2

For the sequence GQVEVHFRGVW (CD6.PD3), in assay [1], the “binding to immobilized LPS (ELISA)” value is on record as “excelled in its ability to bind”. In addition, in assay [2], the IL-1β release entry was “dose-dependent inhibitory effects”, the IL-6 release result is recorded as “dose-dependent inhibitory effects” and the IL-10 release result is given as “non-statistically significant dose-dependent increased release”. The “binding to immobilized LTA (ELISA)” value in assay [3] is “excelled in its ability to bind”.
